This note sets out measurements from patent publication US20110178299A1, “OPTICALLY ACTIVE DIFLUOROMETHANESULFONANILIDE DERIVATIVE AND HERBICIDE” (Kumiai Chemical Industry Co., Ltd., priority 2008, published 2011).

Test in all cases: Paddy pot test of herbicidal effect, water surface application of wettable powder
What all share (assay type): in vivo
Conditions in all cases: applied onto water surface 3 days after sowing, examined after 30 days

One experiment deals with Scirpus juncoides Roxb. As to the method:
(§1) A paddy field soil was filled in a plastic pot having an area of 1/5000 are. Beginning of irrigation, fertilizer application and puddling were conducted. Then, seeds of Echinochloa oryzicola Vasing, Monochoria vaginalis Presl var. plan-taginea (Roxb.) Solms-Lau. and Scirpus juncoides Roxb. were sowed at a depth of 0.5 cm, and submerging was conducted so as to give a water depth of 4 cm. 3 days after the sowing, the wettable powder prepared as in the formulation 1 was diluted with water and dropwise added onto the water surface so that the active ingredient amount (g/10 are) added became the level shown in Table 2. Then, breeding was made at room temperature and, after 30 days, herbicidal effect was examined according to the yardstick shown in Table 1.

Experiment [1] concerns Echinochloa oryzicola Vasing. As to the method:
as §1

Experiment [2] has as its system Monochoria vaginalis Presl var. plan-taginea (Roxb.) Solms-Lau. As to the method: as §1

Consider `COCc1cccc([C@H](O)c2nc(OC)cc(OC)n2)c1NS(=O)(=O)C(F)F` [compound 3, (S)-2′-(4,6-dimethoxypyrimidin-2-yl)hydroxyl-methyl-6′-methoxymethyl-1,1-difluoromethanesulfonanilide], for which the “Herbicidal effect (degree of growth control) index, Scirpus juncoides” value in the experiment on Scirpus juncoides Roxb. (dose 0.32 g ai/10 a) is 0 (Herbicidal effect of less than 10%). Also, the “Herbicidal effect (degree of growth control) index, Echinochloa oryzicola” value in experiment [1] (dose 0.32 g ai/10 a) is reported as 0 (Herbicidal effect of less than 10%). Also, the “Herbicidal effect (degree of growth control) index, Monochoria vaginalis” value in experiment [2] (dose 0.32 g ai/10 a) is 0 (Herbicidal effect of less than 10%).

Consider `COCc1cccc([C@@H](O)c2nc(OC)cc(OC)n2)c1NS(=O)(=O)C(F)F` [compound 1, (R)-2′-(4,6-dimethoxypyrimidin-2-yl)hydroxymethyl-6′-methoxymethyl-1,1-difluoromethanesulfonanilide], for which the “Herbicidal effect (degree of growth control) index, Scirpus juncoides” value in the experiment on Scirpus juncoides Roxb. (dose 0.04 g ai/10 a) is on record as 7 (Herbicidal effect of 70% inclusive to 80% exclusive); in the experiment with Scirpus juncoides Roxb. (dose 0.08 g ai/10 a), 9 (Herbicidal effect of 90 inclusive to 100% exclusive); in the experiment on Scirpus juncoides Roxb. (dose 0.16 g ai/10 a) it was 10 (Herbicidal effect of 100% control); in the experiment with Scirpus juncoides Roxb. (dose 0.32 g ai/10 a) it was 10 (Herbicidal effect of 100% control). Also, the “Herbicidal effect (degree of growth control) index, Echinochloa oryzicola” value is recorded as 1 (Herbicidal effect of 10% inclusive to 20% exclusive) in experiment [1] (dose 0.04 g ai/10 a), 6 (Herbicidal effect of 60% inclusive to 70% exclusive) in experiment [1] (dose 0.08 g ai/10 a), 9 (Herbicidal effect of 90 inclusive to 100% exclusive) in experiment [1] (dose 0.16 g ai/10 a) and 9 (Herbicidal effect of 90 inclusive to 100% exclusive) in experiment [1] (dose 0.32 g ai/10 a). The “Herbicidal effect (degree of growth control) index, Monochoria vaginalis” value in experiment [2] (dose 0.04 g ai/10 a) is 0 (Herbicidal effect of less than 10%); in experiment [2] (dose 0.08 g ai/10 a), 9 (Herbicidal effect of 90 inclusive to 100% exclusive); in experiment [2] (dose 0.16 g ai/10 a), 10 (Herbicidal effect of 100% control); in experiment [2] (dose 0.32 g ai/10 a) it was 10 (Herbicidal effect of 100% control).

For the compound `COCc1cccc(C(O)c2nc(OC)cc(OC)n2)c1NS(=O)(=O)C(F)F` (racemic) [compound 2, (RS)-2′-(4,6-dimethoxypyrimidin-2-yl)hydroxymethyl-6′-methoxymethyl-1,1-difluoromethanesulfonanilide, reference compound], the “Herbicidal effect (degree of growth control) index, Scirpus juncoides” value with Scirpus juncoides Roxb. (dose 0.04 g ai/10 a) was 2 (Herbicidal effect of 20% inclusive to 30% exclusive); with Scirpus juncoides Roxb. (dose 0.08 g ai/10 a), 8 (Herbicidal effect of 80% inclusive to 90% exclusive); with Scirpus juncoides Roxb. (dose 0.16 g ai/10 a), 9 (Herbicidal effect of 90 inclusive to 100% exclusive); in the experiment with Scirpus juncoides Roxb. (dose 0.32 g ai/10 a) it was 10 (Herbicidal effect of 100% control). Besides, the “Herbicidal effect (degree of growth control) index, Echinochloa oryzicola” value was 1 (Herbicidal effect of 10% inclusive to 20% exclusive) in experiment [1] (dose 0.04 g ai/10 a), 3 (Herbicidal effect of 30% inclusive to 40% exclusive) in experiment [1] (dose 0.08 g ai/10 a), 5 (Herbicidal effect of 50% inclusive to 60% exclusive) in experiment [1] (dose 0.16 g ai/10 a) and 7 (Herbicidal effect of 70% inclusive to 80% exclusive) in experiment [1] (dose 0.32 g ai/10 a). Also, the “Herbicidal effect (degree of growth control) index, Monochoria vaginalis” value in experiment [2] (dose 0.04 g ai/10 a) is given as 0 (Herbicidal effect of less than 10%); in experiment [2] (dose 0.08 g ai/10 a) it was 0 (Herbicidal effect of less than 10%); in experiment [2] (dose 0.16 g ai/10 a), 9 (Herbicidal effect of 90 inclusive to 100% exclusive); in experiment [2] (dose 0.32 g ai/10 a), 10 (Herbicidal effect of 100% control).
